# Data published in PMC11729425 (ACS Pharmacology & Translational Science, 2024).
# Tested on: human primary IBM cells
# Experiment: Aggresome detection (proteostat) in primary myoblasts from IBM patients
# Type: cell-based
# Conditions: 4 μM for 24 h
# Procedure: Figure 4 1-deoxy-SL species accumulate in muscle and brain tissues during aging and contribute to cellular protein aggregation. (A,B) Heat map representing the abundance of sphingolipids in (A) gastrocnemius muscle and (B) brain with and without treatment with ALT-007 in mice (ALT-007 at 1 mg/kg; DMSO at equivalent volume for 20 weeks). N = 8 per group. Data are shown as log2 fold change. Adjusted P values are indicated as follows: *adjusted P < 0.05; **adjusted P < 0.01; ***adjusted P < 0.001. (C,D) Representative images and quantification of protein aggregates upon 1-deoxy-SA (C) and P053 treatment (D) in human primary IBM cells; both were administered at 4 μM for 24 h. N = 8 per group. (E) Analysis of 1-Deoxy-Spa and 1-DeoxyCer 24:1 levels in myoblasts from healthy and IBM patients. N = 3 per group. (C–E) Quantitative data are expressed as median with IQR and compared using the Mann–Whitney U test. All tests were 2 sided. *P < 0.05, **P < 0.01, ***P < 0.001.
# Primary myoblasts from IBM patients and healthy aged matched donors were provided by Hospices Civils de Lyon. Cells were grown in DMEM/F-10 supplemented with 12% FBS (Gibco) and penicillin–streptomycin (1×, Gibco). Cells were cultured on sterilized coverslips in six-well plates (Greiner BioOne, CELLSTAR, 657160). […]
smiles,measurement,value
"CCCCCCCCCCCCCCC[C@@H](O)[C@H](C)N [1-deoxy-SA, 1-deoxy-sphinganine]",cellular protein aggregates (proteostat signal),significantly exacerbated the accumulation of cellular protein aggregates
